Legend:
786-0 = test: Cytotoxicity against human 786-0 cells assessed as cell growth at 10 uM after 48 hrs by MTT assay; format: functional; conditions: 786-0, 48 h, read-out: Activity
A498 [1] = test: Cytotoxicity against human A498 cells assessed as cell growth at 10 uM after 48 hrs by MTT assay; format: functional; conditions: A498, 48 h, read-out: Activity
CAKI-1 = test: Cytotoxicity against human Caki1 cells assessed as cell growth at 10 uM after 48 hrs by MTT assay; format: functional; conditions: CAKI-1, 48 h, read-out: Activity
RXF 393 = test: Cytotoxicity against human […] cells assessed as cell growth at 10 uM after 48 hrs by MTT assay; format: functional; conditions: RXF 393, 48 h, read-out: Activity
SN12C = test: Cytotoxicity against human SN12C cells assessed as cell growth at 10 uM after 48 hrs by MTT assay; format: functional; conditions: read-out: Activity
CCRF-CEM [2] = test: Cytotoxicity against human CCRF-CEM cells assessed as cell growth at 100 uM after 1 to 11 days by MTT assay; format: functional; conditions: read-out: Activity
HOP-62 = test: Cytotoxicity against human HOP62 cells assessed as cell growth at 100 uM after 1 to 11 days by MTT assay; format: functional; conditions: read-out: Activity
HCT-116 [3] = test: Cytotoxicity against human HCT116 cells assessed as cell growth at 100 uM after 1 to 11 days by MTT assay; format: functional; conditions: read-out: Activity
U-251 [4] = test: Cytotoxicity against human U251 cells assessed as cell growth at 1 mM after 1 to 11 days by MTT assay; format: functional; conditions: read-out: Activity
OVCAR-8 [5] = test: Cytotoxicity against human OVCAR8 cells after 1 to 11 days by MTT assay; format: functional
A498 [6] = test: Cytotoxicity against human A498 cells after 1 to 11 days by MTT assay; format: functional
A549 = test: Cytotoxicity against human A549 cells assessed as cell growth at 10 uM after 48 hrs by MTT assay; format: functional; conditions: A549, 48 h, read-out: Activity
HOP-92 = test: Cytotoxicity against human HOP92 cells assessed as cell growth at 10 uM after 48 hrs by MTT assay; format: functional; conditions: HOP-92, 48 h, read-out: Activity
NCI-H226 [7] = test: Cytotoxicity against human NCI-H226 cells assessed as cell growth at 10 uM after 48 hrs by MTT assay; format: functional; conditions: NCI-H226, 48 h, read-out: Activity
NCI-H23 = test: Cytotoxicity against human NCI-H23 cells assessed as cell growth at 10 uM after 48 hrs by MTT assay; format: functional; conditions: NCI-H23, 48 h, read-out: Activity
NCI-H460 = test: Cytotoxicity against human NCI-H460 cells assessed as cell growth at 10 uM after 48 hrs by MTT assay; format: functional; conditions: NCI-H460, 48 h, read-out: Activity
NCI-H522 = test: Cytotoxicity against human NCI-H522 cells assessed as cell growth at 10 uM after 48 hrs by MTT assay; format: functional; conditions: NCI-H522, 48 h, read-out: Activity
HCT-116 [8] = test: Cytotoxicity against human HCT116 cells assessed as cell growth at 10 uM after 48 hrs by MTT assay; format: functional; conditions: HCT-116, 48 h, read-out: Activity
SW-620 = test: Cytotoxicity against human SW620 cells assessed as cell growth at 10 uM after 48 hrs by MTT assay; format: functional; conditions: SW-620, 48 h, read-out: Activity
BT-549 = test: Cytotoxicity against human BT549 cells assessed as cell growth at 10 uM after 48 hrs by MTT assay; format: functional; conditions: BT-549, 48 h, read-out: Activity
[9] = Cytotoxicity against human Hs 578T cells assessed as cell growth at 10 uM after 48 hrs by MTT assay; format: functional; conditions: read-out: Activity
MCF7 = test: Cytotoxicity against human MCF7 cells assessed as cell growth at 10 uM after 48 hrs by MTT assay; format: functional; conditions: MCF7, 48 h, read-out: Activity
MDA-MB-435 = test: Cytotoxicity against human MDA-MB-435 cells assessed as cell growth at 10 uM after 48 hrs by MTT assay; format: functional; conditions: MDA-MB-435, 48 h, read-out: Activity
NCI/ADR-RES = test: Cytotoxicity against human NCI/ADR-RES cells assessed as cell growth at 10 uM after 48 hrs by MTT assay; format: functional; conditions: read-out: Activity
T47D = test: Cytotoxicity against human T47D cells assessed as cell growth at 10 uM after 48 hrs by MTT assay; format: functional; conditions: read-out: Activity
IGROV-1 = test: Cytotoxicity against human IGROV1 cells assessed as cell growth at 10 uM after 48 hrs by MTT assay; format: functional; conditions: IGROV-1, 48 h, read-out: Activity
OVCAR-8 [10] = test: Cytotoxicity against human OVCAR8 cells assessed as cell growth at 10 uM after 48 hrs by MTT assay; format: functional; conditions: OVCAR-8, 48 h, read-out: Activity
CCRF-CEM [11] = test: Cytotoxicity against human CCRF-CEM cells assessed as cell growth at 10 uM after 48 hrs by MTT assay; format: functional; conditions: read-out: Activity
HL-60(TB) = test: Cytotoxicity against human HL-60(TB) cells assessed as cell growth at 10 uM after 48 hrs by MTT assay; format: functional; conditions: HL-60, 48 h, read-out: Activity
K562 = test: Cytotoxicity against human K562 cells assessed as cell growth at 10 uM after 48 hrs by MTT assay; format: functional; conditions: K562, 48 h, read-out: Activity
Malme-3M = test: Cytotoxicity against human MALME-3M cells assessed as cell growth at 10 uM after 48 hrs by MTT assay; format: functional; conditions: read-out: Activity
SK-MEL-5 = test: Cytotoxicity against human SK-MEL-5 cells assessed as cell growth at 10 uM after 48 hrs by MTT assay; format: functional; conditions: SK-MEL-5, 48 h, read-out: Activity
SF-539 = test: Cytotoxicity against human SF539 cells assessed as cell growth at 10 uM after 48 hrs by MTT assay; format: functional; conditions: SF-539, 48 h, read-out: Activity
U-251 [12] = test: Cytotoxicity against human U251 cells assessed as cell growth at 10 uM after 48 hrs by MTT assay; format: functional; conditions: U-251, 48 h, read-out: Activity
[13] = molecular target: Cyclin-dependent kinase 1/cyclin B1 (Homo sapiens) (UniProt P06493+P14635); test: Inhibition of human CDK1/Cyclin B assessed as residual enzyme activity at 3 uM after 40 mins by scintillation counting; format: protein-complex assay
Chain of Cyclin-dependent kinase 1/cyclin B1 (Homo sapiens) (P06493 whole entry, looked up): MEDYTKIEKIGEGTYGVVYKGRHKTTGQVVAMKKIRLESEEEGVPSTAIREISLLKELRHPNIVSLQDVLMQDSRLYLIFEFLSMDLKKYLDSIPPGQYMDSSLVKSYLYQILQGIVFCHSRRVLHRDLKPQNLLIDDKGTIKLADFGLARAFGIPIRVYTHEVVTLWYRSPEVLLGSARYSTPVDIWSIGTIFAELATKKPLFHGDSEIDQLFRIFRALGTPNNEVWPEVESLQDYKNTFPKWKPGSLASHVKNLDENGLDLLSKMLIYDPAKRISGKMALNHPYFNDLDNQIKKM
Chain of Cyclin-dependent kinase 1/cyclin B1 (Homo sapiens) (P14635 whole entry, looked up): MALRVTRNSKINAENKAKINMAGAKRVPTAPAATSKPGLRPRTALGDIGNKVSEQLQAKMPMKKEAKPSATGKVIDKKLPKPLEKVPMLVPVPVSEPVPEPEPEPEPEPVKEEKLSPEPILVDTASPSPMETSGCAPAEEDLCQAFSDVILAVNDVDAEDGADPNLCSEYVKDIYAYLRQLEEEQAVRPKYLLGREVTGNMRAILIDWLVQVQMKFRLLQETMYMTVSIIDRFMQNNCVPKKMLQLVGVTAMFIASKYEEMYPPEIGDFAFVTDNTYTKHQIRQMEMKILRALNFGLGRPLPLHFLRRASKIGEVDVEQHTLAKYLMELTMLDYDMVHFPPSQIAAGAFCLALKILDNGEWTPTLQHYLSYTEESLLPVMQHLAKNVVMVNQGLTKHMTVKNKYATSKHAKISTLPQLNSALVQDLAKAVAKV

[14] = molecular target: Cyclin-dependent kinase 5/CDK5 activator 1 (Homo sapiens) (UniProt Q00535+Q15078); test: Inhibition of human CDK5/p35 assessed as residual enzyme activity at 3 uM after 40 mins by scintillation counting; format: protein-complex assay
KM12 = test: Cytotoxicity against human KM12 cells assessed as cell growth at 0.1 uM after 1 to 11 days by MTT assay; format: functional; conditions: read-out: Activity
A498 [15] = test: Cytotoxicity against human A498 cells assessed as cell growth at 0.1 uM after 1 to 11 days by MTT assay; format: functional; conditions: read-out: Activity
NCI-H226 [16] = test: Cytotoxicity against human NCI-H226 cells assessed as cell growth at 1 uM after 1 to 11 days by MTT assay; format: functional; conditions: read-out: Activity
[17] = read-out: LC50 (the source's name)

`O=C1Nc2ncccc2/C1=C1/Nc2ccccc2/C1=N\O` showed a growth at 10 µM (786-0) of 43.4%, a growth at 10 µM (A498 [1]) of -11.7% and a growth at 10 µM (CAKI-1) of 12.4%. For the same compound, the growth at 10 µM (RXF 393) was 29.4%, the growth at 10 µM (SN12C) was 72.8% and the growth at 100 µM (CCRF-CEM [2]) was 37%. The growth at 100 µM (HOP-62) was 63%, the growth at 100 µM (HCT-116 [3]) was 46% and the growth at 1000 µM (U-251 [4]) was 68%. For the same compound, the GI50 (OVCAR-8 [5]) was > 100 µM, the TGI (OVCAR-8 [5]) was > 100 µM and the CC50 (OVCAR-8 [5]; [17]) was > 100 µM. The GI50 (A498 [6]) was 1930 nM, the TGI (A498 [6]) was > 100 µM and the CC50 (A498 [6]; [17]) was > 100 µM. It also gave a growth at 10 µM (A549) of 46.6%, a growth at 10 µM (HOP-92) of 54% and a growth at 10 µM (NCI-H226 [7]) of 78.6%. For the same compound, the growth at 10 µM (NCI-H23) was 89.7%, the growth at 10 µM (NCI-H460) was 52.2% and the growth at 10 µM (NCI-H522) was 47.6%. For the same compound, the growth at 10 µM (HCT-116 [8]) was 36.9%, the growth at 10 µM (SW-620) was 82.8% and the growth at 10 µM (BT-549) was 45.2%. It also gave a growth at 10 µM [9] of -9.72%, a growth at 10 µM (MCF7) of 87.8% and a growth at 10 µM (MDA-MB-435) of 72.6%. For the same compound, the growth at 10 µM (NCI/ADR-RES) was 71.8%, the growth at 10 µM (T47D) was 49.1% and the growth at 10 µM (IGROV-1) was -25.3%. For the same compound, the growth at 10 µM (OVCAR-8 [10]) was 79.6%, the growth at 10 µM (CCRF-CEM [11]) was 84.8% and the growth at 10 µM (HL-60(TB)) was 125%. The growth at 10 µM (K562) was 53.2%, the growth at 10 µM (Malme-3M) was 91% and the growth at 10 µM (SK-MEL-5) was 72.3%. For the same compound, the growth at 10 µM (SF-539) was 50.3%, the growth at 10 µM (U-251 [12]) was 87.3% and the Activity [13] was 69%. It also gave an Activity [14] of 19%, a growth at 0.1 µM (KM12) of 95% and a growth at 0.1 µM (A498 [15]) of 76%. For the same compound, the growth at 1 µM (NCI-H226 [16]) was 84%.
With `CN1C(=O)/C(=C2/C(=O)N(C)c3ncccc32)c2cccnc21` the growth at 10 µM (786-0) was 94.5%, the growth at 10 µM (A498 [1]) was 120% and the growth at 10 µM (CAKI-1) was 95.5%. The growth at 10 µM (RXF 393) was 101%, the growth at 10 µM (SN12C) was 105% and the growth at 10 µM (A549) was 101%. The growth at 10 µM (HOP-92) was 108%, the growth at 10 µM (NCI-H226 [7]) was 102% and the growth at 10 µM (NCI-H23) was 103%. It also gave a growth at 10 µM (NCI-H460) of 121%, a growth at 10 µM (NCI-H522) of 98% and a growth at 10 µM (HCT-116 [8]) of 90.4%. For the same compound, the growth at 10 µM (SW-620) was 109%, the growth at 10 µM (BT-549) was 81.8% and the growth at 10 µM [9] was 115%. For the same compound, the growth at 10 µM (MCF7) was 114%, the growth at 10 µM (MDA-MB-435) was 101% and the growth at 10 µM (NCI/ADR-RES) was 85.5%. For the same compound, the growth at 10 µM (T47D) was 109%, the growth at 10 µM (IGROV-1) was 52.2% and the growth at 10 µM (OVCAR-8 [10]) was 88.8%. The growth at 10 µM (CCRF-CEM [11]) was 89.4%, the growth at 10 µM (HL-60(TB)) was 183% and the growth at 10 µM (K562) was 137%. The growth at 10 µM (Malme-3M) was 91.5%, the growth at 10 µM (SK-MEL-5) was 102% and the growth at 10 µM (SF-539) was 117%. The growth at 10 µM (U-251 [12]) was 95.8%, the Activity [13] was 95% and the Activity [14] was 84%.
`O=C1Nc2ncccc2/C1=C1/Nc2ccccc2C1=O` gave a growth at 10 µM (786-0) of 84.1%, a growth at 10 µM (A498 [1]) of 117% and a growth at 10 µM (CAKI-1) of 53.7%. The growth at 10 µM (RXF 393) was 71.2%, the growth at 10 µM (SN12C) was 90.6% and the growth at 10 µM (A549) was 82.3%. The growth at 10 µM (HOP-92) was 96.9%, the growth at 10 µM (NCI-H226 [7]) was 89% and the growth at 10 µM (NCI-H23) was 76%. The growth at 10 µM (NCI-H460) was 47.7%, the growth at 10 µM (NCI-H522) was 76.3% and the growth at 10 µM (HCT-116 [8]) was 48.5%. It also gave a growth at 10 µM (SW-620) of 102%, a growth at 10 µM (BT-549) of 70.6% and a growth at 10 µM [9] of 72.5%. The growth at 10 µM (MCF7) was 41%, the growth at 10 µM (MDA-MB-435) was 92.8% and the growth at 10 µM (NCI/ADR-RES) was 82.7%. The growth at 10 µM (T47D) was 48.4%, the growth at 10 µM (IGROV-1) was -40.9% and the growth at 10 µM (OVCAR-8 [10]) was 84.4%. It also gave a growth at 10 µM (CCRF-CEM [11]) of 88.4%, a growth at 10 µM (HL-60(TB)) of 173% and a growth at 10 µM (K562) of 85.5%. The growth at 10 µM (Malme-3M) was 139%, the growth at 10 µM (SK-MEL-5) was 75.4% and the growth at 10 µM (SF-539) was 90.9%. For the same compound, the growth at 10 µM (U-251 [12]) was 88.2%, the Activity [13] was 65% and the Activity [14] was 39%.

Reference: ChEMBL document CHEMBL1154822, “Synthesis and antiproliferative activity of 7-azaindirubin-3'-oxime, a 7-aza isostere of the natural indirubin pharmacophore” (J Nat Prod, 2009)
